Assay results published in patent US20250032623A1, “HETEROBIFUNCTIONAL COMPOUNDS AND THEIR USE IN TREATING DISEASE” (HALDA THERAPEUTICS OPCO, INC., priority 2021, published 2025).

How the values were obtained:
[1] = biological target: T1, EGFR T790M, L858R (amino acids 669-1011 Accession Number NP_005219.2) (Homo sapiens, UniProt P00533, L858R/T790M); assay: KdELECT binding assay (Eurofins Discovery), EGFR T790M, L858R; conditions: read-out: EGFR DM Kd
T1 construct: purchased Eurofins Discovery; host or cells: mammalian cells (HEK-293)
T1 sequence (P00533 669-1011 T790M/L858R): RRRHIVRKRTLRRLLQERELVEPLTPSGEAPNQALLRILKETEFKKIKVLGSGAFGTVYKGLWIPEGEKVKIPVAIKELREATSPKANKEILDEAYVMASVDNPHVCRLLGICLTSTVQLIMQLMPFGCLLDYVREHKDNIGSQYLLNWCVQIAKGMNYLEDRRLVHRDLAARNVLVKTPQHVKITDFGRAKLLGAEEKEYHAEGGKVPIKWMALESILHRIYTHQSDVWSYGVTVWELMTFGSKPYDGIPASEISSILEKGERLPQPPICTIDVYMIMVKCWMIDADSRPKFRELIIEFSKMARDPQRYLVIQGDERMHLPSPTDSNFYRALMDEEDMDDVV
Experimental: (§1) Exemplary compounds were tested for ability to bind to EGFR WT (amino acids 669-1011, Accession Number NP_005219.2) or EGFR T790M, L858R (amino acids 669-1011 Accession Number NP_005219.2) expressed from bacteria or mammalian cells, respectively. Compounds were tested using the KdELECT assay at Eurofins Discovery.
(§2) Kinase-tagged T7 phage strains were prepared in an E. coli host derived from the BL21 strain. E. coli were grown to log-phase and infected with T7 phage and incubated with shaking at 32° C. until lysis. The lysates were centrifuged and filtered to remove cell debris. The remaining kinases were produced in HEK-293 cells and subsequently tagged with DNA for qPCR detection. Streptavidin-coated magnetic beads were treated with biotinylated small molecule ligands for 30 minutes at room temperature to generate affinity resins for kinase assays. The liganded beads were blocked with excess biotin and washed with blocking buffer (SeaBlock (Pierce), 1% BSA, 0.05% Tween 20, 1 mM DTT) to remove unbound ligand and to reduce non-specific binding. Binding reactions were assembled by combining kinases, liganded affinity beads, and test compounds in 1× binding buffer (20% SeaBlock, 0.17×PBS, 0.05% Tween 20, 6 mM DTT). Test compounds were prepared as 111× stocks in 100% DMSO. Kd values were determined using an 11-point 3-fold compound dilution series with three DMSO control points. All compounds for Kd measurements are distributed by acoustic transfer (non-contact dispensing) in 100% DMSO. The compounds were then diluted directly into the assays such that the final concentration of DMSO was 0.9%. All reactions performed in polypropylene 384-well plate. Each was a final volume of 0.02 mL. The assay plates were incubated at room temperature with shaking for 1 hour and the affinity beads were washed with wash buffer (1× PBS, 0.05% Tween 20). The beads were then re-suspended in elution buffer (1× PBS, 0.05% Tween 20, 0.5 μM nonbiotinylated affinity ligand) and incubated at room temperature with shaking for 30 minutes. The kinase concentration in the eluates was measured by qPCR.

EGFR = biological target: T2, EGFR (Homo sapiens, UniProt P00533); assay: KdELECT binding assay, EGFR
T2 construct: purchased
T2 sequence (P00533 25-1210): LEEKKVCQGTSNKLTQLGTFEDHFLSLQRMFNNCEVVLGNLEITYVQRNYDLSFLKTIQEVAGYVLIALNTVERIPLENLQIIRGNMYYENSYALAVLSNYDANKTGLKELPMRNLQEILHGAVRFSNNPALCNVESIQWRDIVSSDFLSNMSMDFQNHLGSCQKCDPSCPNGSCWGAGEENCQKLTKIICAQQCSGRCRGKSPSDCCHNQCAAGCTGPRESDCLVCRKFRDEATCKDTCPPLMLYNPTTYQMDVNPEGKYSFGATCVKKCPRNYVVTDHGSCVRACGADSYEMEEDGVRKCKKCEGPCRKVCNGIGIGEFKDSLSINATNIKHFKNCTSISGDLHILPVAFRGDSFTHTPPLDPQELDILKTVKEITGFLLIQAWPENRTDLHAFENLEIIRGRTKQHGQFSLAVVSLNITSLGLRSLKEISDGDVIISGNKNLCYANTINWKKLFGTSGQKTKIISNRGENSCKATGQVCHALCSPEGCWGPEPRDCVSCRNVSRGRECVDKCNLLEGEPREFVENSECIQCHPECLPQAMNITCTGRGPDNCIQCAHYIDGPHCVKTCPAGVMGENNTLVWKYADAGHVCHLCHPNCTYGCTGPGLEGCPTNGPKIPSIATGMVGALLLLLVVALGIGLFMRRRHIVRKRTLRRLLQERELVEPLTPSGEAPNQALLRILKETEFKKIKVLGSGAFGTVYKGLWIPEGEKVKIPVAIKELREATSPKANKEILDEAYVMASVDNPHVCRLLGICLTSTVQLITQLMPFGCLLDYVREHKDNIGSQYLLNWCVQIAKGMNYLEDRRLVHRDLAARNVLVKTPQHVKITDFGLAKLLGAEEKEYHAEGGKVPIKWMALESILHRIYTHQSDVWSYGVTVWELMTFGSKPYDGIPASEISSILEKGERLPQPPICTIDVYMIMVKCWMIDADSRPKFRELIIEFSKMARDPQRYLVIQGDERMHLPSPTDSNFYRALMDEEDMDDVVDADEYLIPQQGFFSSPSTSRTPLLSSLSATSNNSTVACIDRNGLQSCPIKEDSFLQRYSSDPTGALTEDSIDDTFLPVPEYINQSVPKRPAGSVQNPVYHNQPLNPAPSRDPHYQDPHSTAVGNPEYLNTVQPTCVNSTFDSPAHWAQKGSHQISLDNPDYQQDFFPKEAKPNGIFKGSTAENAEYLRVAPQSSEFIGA
Experimental: Exemplary compounds were tested for ability to bind to EGFR.
as §2, with “Compounds were tested using a KdELECT assay. Kinase-tagged” for “Kinase-tagged”

[2] = biological target: T3, EGFR WT (amino acids 669-1011, Accession Number NP_005219.2) (Homo sapiens, UniProt P00533); assay: KdELECT binding assay (Eurofins Discovery), EGFR WT
T3 construct: purchased Eurofins Discovery; host or cells: bacteria (E. coli, BL21-derived, T7 phage)
T3 sequence (P00533 669-1011): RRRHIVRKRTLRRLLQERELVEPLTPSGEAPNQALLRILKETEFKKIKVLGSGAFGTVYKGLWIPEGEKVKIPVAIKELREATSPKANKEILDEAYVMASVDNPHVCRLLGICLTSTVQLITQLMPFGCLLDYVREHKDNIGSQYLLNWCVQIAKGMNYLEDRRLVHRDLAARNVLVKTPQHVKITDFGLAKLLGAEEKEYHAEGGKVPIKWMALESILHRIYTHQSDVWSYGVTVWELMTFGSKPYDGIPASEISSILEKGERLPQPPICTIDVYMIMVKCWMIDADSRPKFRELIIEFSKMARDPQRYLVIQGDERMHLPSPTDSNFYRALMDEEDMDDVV
Experimental: as §1, §2

HEK293 cells = assay: Cellular growth inhibition assay (CellTiter-Glo), HEK293 cells; assay type: cell-based; conditions: Homo sapiens, 72 h, three days compound treatment, CellTiter-Glo 2.0, read-out: CTG HEK293 GI50
Experimental: Exemplary compounds were tested for ability to inhibit the proliferation of HEK293 cells or HeLa cells.
HEK293 and HeLa cells were cultured in DMEM medium supplemented with 10% fetal bovine serum and 1% Penn/Strep. Cells were seeded in white 384-well plates at 500 cells/well in […] complete medium. Following seeding, plates were spun at 300×g for three minutes and cultured at 37° C. with 5% CO2 in a humidified tissue culture incubator.
After 24 hours, compounds were titrated in 100% DMSO and diluted in complete cell culture medium. […] of compound/media mixture was added to cells to bring total volume in well to […]. DMSO alone was used as a negative control. P lates were then spun at 300×g for three minutes and stored at 37° C. with 5% CO2 for three days.
On Day 0 and Day 3 of compound treatment, cell viability was quantified with CellTiter-Glo 2.0 reagent (Promega). After equilibrating microplates at room temperature for 30 minutes, 25 μL CellTiter-Glo 2.0 reagent was dispensed into each well to bring total volume to […]. Plates were mixed on shaker for 2 minutes at 500 rpm, followed by a 10-minute incubation at room temperature. Following a quick spin, luminescence readings were measured with an EnVision Plate Reader. Data was normalized to DMSO treated Day 0 and Day 3 readings. A four-parameter non-linear regression curve fit was applied to dose-response data in GraphPad Prism data analysis software to determine the half maximal growth inhibitory concentration (GI50) for each compound.

Kd [1]	Kd (EGFR)	Kd [2]	Compound	GI50 (HEK293 cells)
< 50 nM	< 50 nM	50 to 500 nM	C=CC(=O)Nc1cc(Nc2nccc(-c3cn(C)c4ccccc34)n2)c(OC)cc1N(C)CCN(C)CCCCCCCCNS(=O)(=O)c1ccc(Nc2ncc(Br)c(Nc3cccc(F)c3C(N)=O)n2)cc1 [Compound I-28, 2-[[5-bromo-2-[4-[8-[2-[5-methoxy-N-methyl-4-[[4-(1-methylindol-3-yl)pyrimidin-2-yl]amino]-2-(prop-2-enoylamino)anilino]ethyl-methyl-amino]octylsulfamoyl]anilino]pyrimidin-4-yl]amino]-6-fluoro-benzamide]	
< 50 nM		50 to 500 nM	C=CC(=O)Nc1cc(Nc2nccc(-c3cn(C)c4ccccc34)n2)c(OC)cc1N(C)CCN(C)CCCCNS(=O)(=O)c1ccc(Nc2ncc(Br)c(Nc3cccc(F)c3C(N)=O)n2)cc1 [Compound I-29, 2-[[5-bromo-2-[4-[4-[2-[5-methoxy-N-methyl-4-[[4-(1-methylindol-3-yl)pyrimidin-2-yl]amino]-2-(prop-2-enoylamino)anilino]ethyl-methyl-amino]butylsulfamoyl]anilino]pyrimidin-4-yl]amino]-6-fluoro-benzamide]	
< 50 nM		50 to 500 nM	C=CC(=O)Nc1cc(Nc2nccc(-c3cn(C)c4ccccc34)n2)c(OC)cc1N(C)CCN(C)CCOCCOCCOCCOCCNS(=O)(=O)c1ccc(Nc2ncc(Br)c(Nc3cccc(F)c3C(N)=O)n2)cc1 [Compound I-32, 2-[[5-bromo-2-[4-[2-[2-[2-[2-[2-[2-[5-methoxy-N-methyl-4-[[4-(1-methylindol-3-yl)pyrimidin-2-yl]amino]-2-(prop-2-enoylamino)anilino]ethyl-methyl-amino]ethoxy]-ethoxy]ethoxy]ethoxy]ethylsulfamoyl]anilino]pyrimidin-4-yl]amino]-6-fluoro-benzamide]	
< 50 nM	< 50 nM	50 to 500 nM	C=CC(=O)Nc1cc(Nc2nccc(-c3cn(C)c4ccccc34)n2)c(OC)cc1N(C)CCN(C)CCOCCOCCOCCOCCOCCOCCNS(=O)(=O)c1ccc(Nc2ncc(Br)c(Nc3cccc(F)c3C(N)=O)n2)cc1 [Compound I-34, 2-[[5-bromo-2-[4-[2-[2-[2-[2-[2-[2-[2-[2-[5-methoxy-N-methyl-4-[[4-(1-methylindol-3-yl)pyrimidin-2-yl]amino]-2-(prop-2-enoylamino)anilino]ethyl-methyl-amino]ethoxy]ethoxy]ethoxy]-ethoxy]ethoxy]ethoxy]ethylsulfamoyl]anilino]pyrimidin-4-yl]amino]-6-fluoro-benzamide]	
< 50 nM		500 to 2500 nM	C=CC(=O)Nc1cc(Nc2nccc(-c3cn(C)c4ccccc34)n2)c(OC)cc1N(C)CCN(C)CCOCCOCCOCCOCCOCCOCCON(C)C(=O)N1N=C(c2cc(F)ccc2F)SC1(CCCN)c1ccccc1 (stereo not shown) [Compound I-68]	
	500 to 2500 nM	500 to 2500 nM	C=CC(=O)Nc1cc(Nc2nccc(-c3cn(C)c4ccccc34)n2)c(OC)cc1N(C)CCN(C)CCOCCOCCOCCOCCNC(=O)c1ccc(Nc2ncc3c(n2)N(C2CCCC2)[C@H](CC)C(=O)N3C)c(OC)c1 [Compound I-112, 4-[[(7R)-8-cyclopentyl-7-ethyl-5-methyl-6-oxo-7H-pteridin-2-yl]amino]-3-methoxy-N-[2-[2-[2-1[2-[2-1[2-1[5-methoxy-N-methyl-4-1[[4-(1-methylindol-3-yl)pyrimidin-2-yl]amino]-2-(prop-2-enoylamino)anilino]ethyl-methyl-amino]ethoxy]ethoxy]ethoxy]ethoxy]ethyl]benzamide]	
	500 to 2500 nM	500 to 2500 nM	C=CC(=O)Nc1cc(Nc2nccc(-c3cn(C)c4ccccc34)n2)c(OC)cc1N(C)CCN(C)CCOCCOCCOCCOCCOCCOCCNC(=O)c1ccc(Nc2ncc3c(n2)N(C2CCCC2)[C@H](CC)C(=O)N3C)c(OC)c1 [Compound I-113, (R)—N-(2-(2-acrylamido-5-methoxy-4-((4-(1-methyl-1H-indol-3-yl)pyrimidin-2-yl)amino)phenyl)-5-methyl-8,11,14,17,20,23-hexaoxa-2,5-diazapentacosan-25-yl)-4-((8-cyclopentyl-7-ethyl-5-methyl-6-oxo-5,6,7,8-tetrahydropteridin-2-yl)amino)-3-methoxybenzamide]	1500 to 5000 nM
50 to 500 nM	> 2500 nM	> 2500 nM	C=CC(=O)Nc1cc(Nc2nccc(-c3cn(C)c4ccccc34)n2)c(OC)cc1N(C)CCN(C)CCNC(=O)c1ccc(Nc2ncc3c(n2)N(C2CCCC2)[C@H](CC)C(=O)N3C)c(OC)c1 [Compound I-115, 4-[[(7R)-8-cyclopentyl-7-ethyl-5-methyl-6-oxo-7H-pteridin-2-yl]amino]-3-methoxy-N-[2-[2-[5-methoxy-N-methyl-4-[1[4-(1-methylindol-3-yl)pyrimidin-2-yl]amino]-2-(prop-2-enoylamino)anilino]ethyl-methyl-amino]ethyl]benzamide]	500 to 1500 nM
50 to 500 nM	> 2500 nM	> 2500 nM	CC[C@@H]1C(=O)N(C)c2cnc(Nc3ccc(C(=O)NCCOCCOCCN(C)C/C=C/C(=O)Nc4cc(Nc5nccc(-c6cn(C)c7ccccc67)n5)c(OC)cc4N(C)CCN(C)C)cc3OC)nc2N1C1CCCC1 [Compound I-117, 4-[[(7R)-8-cyclopentyl-7-ethyl-5-methyl-6-oxo-7H-pteridin-2-yl]amino]-N-[2-[2-[2-1[[(E)-4-1[2-[2-(dimethylamino)ethyl-methyl-amino]-4-methoxy-5-1[[4-(1-methylindol-3-yl)pyrimidin-2-yl]amino]anilino]-4-oxo-but-2-enyl]-methyl-amino]ethoxy]ethoxy]ethyl]-3-methoxy-benzamide]	500 to 1500 nM
